Consider five compounds from article PMC10539501 (Nature Communications, 2023).

The conditions of data set [1]: rat, in vivo, po, 10 mg/kg.
Experimental: (§1) All animals were housed individually in the animal facility at Anthem Biosciences Pvt. Ltd and were acclimatized for 3 days. All animals were fasted overnight before dosing, whereas access to water was provided ad libitum. Peptides were administered orally and via s.c. route and blood samples were collected at different time points through a jugular vein catheter.
Data set [2] in a line: in vitro. As to conditions: both, human, plasma.
Experimental: Blood was freshly drawn from three healthy adults, two male and one person of 26–28 year old. […] The plasma was separated by centrifugation. […] For checking metabolic stability, the required volume of plasma was pre-incubated at 37 °C prior to the experiment for 2 min, followed by spiking with the peptides. At different time points, plasma was aliquoted. The supernatant was separated and used for RP-HPLC quantification. Rapid Equilibrium Dialysis (RED) assay was performed to assess the plasma protein binding of the peptides following the supplier’s protocol.
Data set [3] can be described thus: PAMPA passive permeability.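 Further: passive permeability across an artificial membrane in 96-well pre-coated PAMPA plates, which lack transporters and efflux systems.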 It is filed as in vitro ADME.
Experimental: Encouraged by this, the passive permeability of the analogs was evaluated using an artificial membrane (PAMPA), which measures permeability of compounds in the absence of transporters and efflux systems[32].
96-well BD Corning® pre-coated PAMPA plates were used following the supplier’s protocol, details in Supplementary Information.
Another data set is described as follows: physchem. As to conditions: pH 7.4.
A short description of data set [4]: in vitro. As to conditions: pig, simulated intestinal fluid.
Data set [5] addresses T1, pepsin (Sus scrofa, UniProt P00791). To be noted: pH 1.2.
Experimental: (§2) A stability assessment of the peptides was done in simulated gastric (SGF) and intestinal (SIF) fluids and human liver microsomes. The degradation kinetics of the aliquoted samples at desired time points were analyzed through RP-HPLC.
The format of data set [6] is physicochemical.
Data set [7] can be described thus: Retention in hydrophobic C18 column by HPLC. To be noted: Supplementary Fig 3d, logD7.4 vs tR.
Data set [8] can be described thus: in vitro. As to conditions: both, human, plasma. This is another data set of the same source.
Data set [9] has as its target T1, pepsin. The data set is described as follows: in vitro. To be noted: simulated gastric fluid, pH 1.2.
Experimental: as §2
Data set [10] is described as follows: Octanol-water distribution coefficient (logD7.4). To be noted: octanol-water, pH 7.4; value plotted against PAMPA (Supplementary Fig 12).
The nature of data set [11]: in vivo. As to conditions: male, Wistar, rat.
Experimental: as §1
Data set [12] is described as follows: HDX of amide protons by NMR in CDCl3:CD3OD (8:2).
Experimental: (§3) As hydrogen bonding and solvation of NH groups play an important role in the permeability of macrocycles, we determined the solvent accessibility of individual amide protons in 10 and 10a–10f by hydrogen-deuterium exchange (HDX) through NMR spectroscopy (Figs. 2a–c).
(§4) Spectra were recorded on a Bruker AV 500 MHz spectrometer at 25 °C.
The format of data set [13] is physicochemical. The source holds these as a separate data set.
Data set [14] in a line: in vitro. To be noted: human, microsomes.
Experimental: as §2
A further data set deals with Caco-2 cells. As to the kind of experiment: in vitro. The data set is classed as in vitro ADME, human. As to conditions: Caco-2.
A short description of data set [15]: in vitro. The data set is classed as in vitro ADME, human.
Experimental: (§5) The Caco-2 cell (HTB-37^TM from ATCC, procured from NCCS, Pune) monolayer was washed and pre-incubated at 37 °C and 5% CO2 for 30 min with HBSS-HEPES buffer containing 1% DMSO prior to experimentation. The assay was performed 21 days post-seeding of cells. TEER values were measured before starting and after the completion of the assay. Acceptor and donor well concentrations of the peptides and controls were assessed through LC-MS/MS.
The nature of data set [16]: HDX of amide protons by NMR in DMSO-d6:D2O (8:2). To be noted: HDX by NMR, 20% D2O in DMSO-d6.
Experimental: as §3, §4
Another data set in a line: SIF. To be noted: up to 72 hours.
In the next data set the target is T2, SSTR5 (Homo sapiens, UniProt P35346).
T2 construct: expressed in transfected cells; host or cells: HEK-293T (CRL-3216)
The data set is described as follows: GloSensor assay, inhibition of forskolin-induced cAMP production. The data set is classed as cell-based. The procedure:
HEK-293T cells (CRL-3216 from ATCC, procured from NCCS, Pune) were co-transfected with human somatostatin receptor subtypes 2 & 5, plasmid cDNA, and cAMP biosensor (pGloSensorTM-22F plasmid; Promega Corp.) using PEImax. Ligand incubation was followed by the addition and incubation of forskolin (FSK) to the plate. Dose-dependent inhibition of forskolin-induced cAMP production by the peptide ligands was measured using a luminescence plate reader. An elaborate description of the assay setup has been provided in Supplementary Information.

A short description of data set [17]: in vivo. To be noted: male, rat, sc.
Experimental: Subsequently, we selected 13a, 13b, 13d, and 13e for assessing their plasma exposure post single dose subcutaneous injection into male Sprague Dawley rats.
as §1
For a further data set, the target named is T3, SSTR2 (Homo sapiens, UniProt P30874).
T3 construct: expressed in transfected cells; host or cells: HEK-293T (CRL-3216)
As to the kind of experiment: GloSensor assay, inhibition of forskolin-induced cAMP production. It is filed as cell-based. As to conditions: read-out: IC50 sstr2.

Where [18] appears, read: 20% CD3OD in CDCl3, % remaining after 24 hours.

Starred links: 1 amine or outer side, 2 acyl side, 3 side chain; linkers in the order of their positions; H or OH if unused. Non-standard residues stand in square brackets, D forms with d. Residues, ends and D or L forms follow the SMILES beside them. X1 = CC(C)C[C@H](NC(=S)[C@H](Cc1ccc(O)cc1)N[*:1])C(=O)[*:2]; X9 = O=C([C@@H]1CCCN1C(=S)[C@H](Cc1ccccc1)N[*:1])[*:2]
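Wherever Papp A-B avg (second block) is given: Caco-2 monolayers used 21 days after seeding in HBSS-HEPES buffer with 1% DMSO, donor and acceptor levels quantified by LC-MS/MS, TEER checked before and after.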
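Wherever Papp A-B set 1 (second block) is given: Caco-2 monolayers used 21 days after seeding in HBSS-HEPES buffer with 1% DMSO, donor and acceptor levels quantified by LC-MS/MS, TEER checked before and after.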
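Wherever Papp A-B set 2 (second block) is given: Caco-2 monolayers used 21 days after seeding in HBSS-HEPES buffer with 1% DMSO, donor and acceptor levels quantified by LC-MS/MS, TEER checked before and after.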
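Wherever Papp B-A avg (second block) is given: Caco-2 monolayers used 21 days after seeding in HBSS-HEPES buffer with 1% DMSO, donor and acceptor levels quantified by LC-MS/MS, TEER checked before and after.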

T1 sequence (P00791 60-385): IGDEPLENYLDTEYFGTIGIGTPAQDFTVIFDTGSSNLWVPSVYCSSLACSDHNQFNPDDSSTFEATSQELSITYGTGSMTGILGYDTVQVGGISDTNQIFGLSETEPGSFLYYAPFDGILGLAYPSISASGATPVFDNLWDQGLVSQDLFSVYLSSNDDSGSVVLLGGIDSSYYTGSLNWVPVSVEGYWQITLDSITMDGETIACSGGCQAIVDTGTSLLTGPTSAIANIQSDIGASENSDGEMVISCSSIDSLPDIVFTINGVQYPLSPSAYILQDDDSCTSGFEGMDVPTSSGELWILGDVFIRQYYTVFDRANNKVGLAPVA
T3 sequence (P30874 whole entry): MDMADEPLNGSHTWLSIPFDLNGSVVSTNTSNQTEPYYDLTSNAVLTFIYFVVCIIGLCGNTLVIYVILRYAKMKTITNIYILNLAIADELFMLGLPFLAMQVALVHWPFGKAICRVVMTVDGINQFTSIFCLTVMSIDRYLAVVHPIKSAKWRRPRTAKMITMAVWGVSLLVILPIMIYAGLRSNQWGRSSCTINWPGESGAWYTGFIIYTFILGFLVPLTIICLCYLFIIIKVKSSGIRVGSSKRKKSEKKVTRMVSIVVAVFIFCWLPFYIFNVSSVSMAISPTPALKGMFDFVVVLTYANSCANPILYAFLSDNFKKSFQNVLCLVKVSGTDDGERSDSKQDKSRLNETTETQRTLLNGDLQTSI
T2 sequence (P35346 whole entry): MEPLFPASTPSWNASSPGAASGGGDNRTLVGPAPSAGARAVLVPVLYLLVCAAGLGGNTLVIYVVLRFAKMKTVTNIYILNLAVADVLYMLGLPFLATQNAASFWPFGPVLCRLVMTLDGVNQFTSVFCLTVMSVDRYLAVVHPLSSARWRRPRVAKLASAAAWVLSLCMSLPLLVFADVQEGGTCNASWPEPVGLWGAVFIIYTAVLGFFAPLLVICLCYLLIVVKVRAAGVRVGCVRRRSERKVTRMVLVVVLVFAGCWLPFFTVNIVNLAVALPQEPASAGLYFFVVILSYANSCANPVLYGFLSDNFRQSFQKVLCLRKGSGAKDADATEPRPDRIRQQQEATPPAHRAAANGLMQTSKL
Experimental for Caco-2 cells: as §5
Experimental for human liver microsomes: as §2

As to `CC(C)C[C@@H]1NC(=O)[C@@H](CC(C)C)NC(=O)[C@H](CC(C)C)NC(=S)[C@H](Cc2ccc(O)cc2)NC(=O)[C@H]2CCCN2C(=O)[C@H](CC(C)C)NC1=O` [10e] (cyclo(LL[dP][X1][dL])), in data set [1], the AUClast p.o turned out to be 359.5 ng·h/mL and the “time over which the peptide is detectable in plasma” value is on record as at least 8 h. Further, in the data set with plasma proteins, the “Protein binding set1” value is 100%, the “Protein binding set2” value is listed as 95% and the “Protein binding set3” value is 100%. Further, in the data set “in vitro [2]”, the half-life was 26 h, the share remaining at 1 h worked out at 90%, the amount remaining at 3 h came out at 82% and the share remaining at 5 h came to 84%. In the data set “in vitro [2]”, this compound registered a fraction remaining at 7 h of 76%, an amount remaining at 9 h of 67%, a share remaining at 12 h of 61% and a fraction remaining at 24 h of 50%. In “in vitro [2]”, this compound came in with a share remaining at 36 h of 43%, a share remaining at 48 h of 32%, a share remaining at 60 h of 25% and an amount remaining at 72 h of 12%. In addition, in data set [3], the “Pe Avg” value turned out to be 7.4 ×10⁻⁶ cm/s, the “Pe set1” value was determined as 7.43 ×10⁻⁶ cm/s, the “Pe set2” value came to 6.36 ×10⁻⁶ cm/s and the “Pe set3” value amounted to 8.29 ×10⁻⁶ cm/s. The Papp in [3] (Pe Avg) is 7.4 ×10⁻⁶ cm/s. This compound also returned a logD in the data set “physchem” of 1.45. For the same compound, in the data set “in vitro [4]”, the half-life is 4.02 h, the fraction remaining at 10 min is 76.6%, the amount remaining at 0.5 h is 68.3% and the amount remaining at 1 h was 62.8%. Moreover, in “in vitro [4]”, the share remaining at 2 h was 58.3%, the share remaining at 4 h was 49.7%, the amount remaining at 8 h is 40.9% and the share remaining at 12 h is 27.5%. In the data set “in vitro [4]”, this compound displayed a fraction remaining at 24 h of 19.9%. The “Half lives (SGF) set1” value on pepsin [5] was found to be 259 min. In data set [6], this compound gave a logD heptane ethylene glycol of 0.94. The tR in data set [7] turned out to be 13.5 min. In “in vitro [8]”, this compound had a fraction unbound of 0.01. On pepsin [9], this compound displayed a half-life of 3.83 h, a fraction remaining at 5 min of 82%, a fraction remaining at 10 min of 78% and an amount remaining at 20 min of 73%. At pepsin [9], this compound returned a share remaining at 0.5 h of 66%, a share remaining at 1 h of 61%, a share remaining at 2 h of 58% and a fraction remaining at 4 h of 49%. At pepsin [9], this compound had an amount remaining at 8 h of 41%, an amount remaining at 12 h of 35% and an amount remaining at 24 h of 24%. In addition, the Half lives in the data set on human liver microsomes stood at 24.8. Moreover, in data set [10], the logD7.4 is reported as 1.65. In the data set “in vivo [11]” (iv), the AUC(0-t) was determined as 2280 ng·h/mL, the maximum concentration (Cmax) came out at 2660 ng/mL, the MRT was 1.5 h and the Vd was 0.7 L/kg. This compound also returned a clearance in the data set “in vivo [11]” (iv) of 7.5 mL/min/kg. This compound also showed a bioavailability in the data set “in vivo [11]” (po) of 1.6%. Besides, in “in vivo [11]” (po, 10 mg/kg), the AUC(0-t) was 360 ng·h/mL, the concentration peaked (Cmax) at 47.2 ng/mL, the MRT came to 5.9 h and the level at 3 h worked out at 32.6 ng/mL. In [12] (20% CD3OD in CDCl3), the “Half-life of D-Leu1 amide proton (HDX)” value was 0.167 h, the “Half-life of Leu2 amide proton (HDX)” value stood at 2 min, the “Half-life of Leu3 amide proton (HDX)” value is over 24 h and the “Half-life of Leu6 amide proton (HDX)” value is over 24 h. In addition, the “Half-life of Tyr5 amide proton (HDX)” value in [12] (20% CD3OD in CDCl3) is 3.13 h. Besides, in [12] (setting [18]), the “% intact NH, Leu3” value was 66% and the “% intact NH, Leu6” value amounted to 70%. Also, the “% solubility” value in data set [13] is recorded as 14%. In addition, in “in vitro [14]”, the microsomal CLint turned out to be 56.5 µL/min/mg, the share remaining at 5 min was found to be 97%, the fraction remaining at 10 min is 70% and the share remaining at 20 min was 55%. In the data set “in vitro [14]”, this compound yielded an amount remaining at 0.5 h of 47%, a share remaining at 0.75 h of 37% and a fraction remaining at 1 h of 27%. In the data set with Caco-2 cells, the “Papp A-B avg (second block)” value turned out to be 2.01 ×10⁻⁶ cm/s, the “Papp A-B set 1 (second block)” value worked out at 2.06 ×10⁻⁶ cm/s, the “Papp A-B set 2 (second block)” value is 1.96 ×10⁻⁶ cm/s and the “Papp B-A avg (second block)” value stood at 37.6 ×10⁻⁶ cm/s. Besides, in the data set on Caco-2 cells, the “Papp B-A set 1 (second block)” value was determined as 38.6 ×10⁻⁶ cm/s and the “Papp B-A set 2 (second block)” value stood at 36.7 ×10⁻⁶ cm/s. In addition, the Papp A→B in “in vitro [15]” (Caco-2, Papp A-B + Elacridar avg) worked out at 6.1 ×10⁻⁶ cm/s. In the data set “in vitro [15]” (Caco-2, Papp A-B avg), this compound registered a Papp A→B of 2.01 ×10⁻⁶ cm/s. Also, the apparent permeability from basolateral to apical (Papp B→A) in “in vitro [15]” (Caco-2, Papp B-A + Elacridar avg) came to 9.5 ×10⁻⁶ cm/s. The apparent permeability from basolateral to apical (Papp B→A) in “in vitro [15]” (Caco-2, Papp B-A avg) was found to be 37.6 ×10⁻⁶ cm/s. In addition, in data set [16], the “Half-life of D-Leu1 amide proton (HDX)” value was 0.767 h, the “Half-life of Leu2 amide proton (HDX)” value was 0.6 h, the “Half-life of Leu3 amide proton (HDX)” value stood at 3.18 h and the “Half-life of Leu6 amide proton (HDX)” value was determined as 10.8 h. In addition, in [16], the “Half-life of Tyr5 amide proton (HDX)” value was 0.583 h.
As to cyclo(D-Trp^1-Lys'-Thr-Phe-Pro-Phe^6), the not cleaved entry in the data set “SIF” is “prevented the degradation of the macrocycle over 72 h”.
Consider `C[C@@H](O)[C@@H]1NC(=O)[C@H](CCCCN)NC(=O)[C@@H](Cc2c[nH]c3ccccc23)NC(=O)[C@H](Cc2ccccc2)NC(=O)[C@@H]2CCCN2C(=S)[C@H](Cc2ccccc2)NC1=O` [13d] (cyclo(F[dW]KT[X9])), for which the “t1/2 in human blood plasma” value came to 42 h. Further, the IC50 at SSTR5 is over 10000 nM. Also, in the data set “in vitro [2]”, the half-life was 42 h. This compound returned a Papp in data set [3] (Pe) of 2.29 ×10⁻⁶ cm/s. For the same compound, the logD in the data set “physchem” is -0.84. In “in vivo [17]” (Sprague Dawley), the level at 0.5 h came to 92 ng/mL and the level at 1 h was 77 ng/mL. For the same compound, in the data set “in vivo [17]” (Sprague-Dawley), the half-life was 1.1 ± 0.4 h. The IC50 at SSTR2 was determined as 20.3 ± 11.9 nM. The compound further showed a logD heptane ethylene glycol in data set [6] of -0.94. Besides, in “in vitro [8]”, the fraction unbound was 0.11.
Consider cyclo(D-Trp^1-Lys-Thr-Phe-Pro-Phe^6), for which the not cleaved result in “SIF” is listed as “prevented the degradation of the macrocycle over 72 h”.
With cyclo(-D-Trp^1-Lys-Thr-Phe-Pro-Phe^6-), the cleaved bond entry in “SIF” is “Lys2-Thr3, major, 1 hour”.
